Measurements from ChEMBL document CHEMBL1201862, “PubChem BioAssay data set” (2004).
Activity calls are given as the source filed them.

Experiments:
[1] = molecular target: T1, Corticotropin-releasing factor receptor 2/Corticotropin-releasing factor-binding protein (Homo sapiens, UniProt P24387+Q13324); test: activators of CRF receptor 2 with binding protein – uHTS hits, confirmation (AID 602473); type: functional; conditions: read-out: EC50_Mean
T1 sequence (Q13324 whole entry): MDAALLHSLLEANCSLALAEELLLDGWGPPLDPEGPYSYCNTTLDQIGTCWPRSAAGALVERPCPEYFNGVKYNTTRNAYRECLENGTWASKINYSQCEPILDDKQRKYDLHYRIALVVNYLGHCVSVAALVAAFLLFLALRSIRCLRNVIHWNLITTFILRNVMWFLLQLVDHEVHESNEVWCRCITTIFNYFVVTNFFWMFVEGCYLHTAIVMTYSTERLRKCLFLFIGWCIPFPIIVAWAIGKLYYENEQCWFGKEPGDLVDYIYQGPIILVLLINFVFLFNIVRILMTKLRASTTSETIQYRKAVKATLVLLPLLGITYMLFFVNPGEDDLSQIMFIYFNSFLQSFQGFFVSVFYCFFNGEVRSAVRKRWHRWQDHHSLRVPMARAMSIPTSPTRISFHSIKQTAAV
T1 sequence (P24387 whole entry): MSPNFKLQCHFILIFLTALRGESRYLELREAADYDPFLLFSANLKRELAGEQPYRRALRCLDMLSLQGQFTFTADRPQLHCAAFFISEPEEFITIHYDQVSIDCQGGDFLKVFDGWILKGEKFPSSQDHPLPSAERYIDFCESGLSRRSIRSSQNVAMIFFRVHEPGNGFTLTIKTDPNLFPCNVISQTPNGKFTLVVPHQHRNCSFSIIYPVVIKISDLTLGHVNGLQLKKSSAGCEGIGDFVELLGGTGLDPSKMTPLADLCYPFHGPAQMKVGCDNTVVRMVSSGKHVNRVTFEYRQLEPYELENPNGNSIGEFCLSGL

[2] = molecular target: T1, Corticotropin-releasing factor receptor 2/Corticotropin-releasing factor-binding protein; test: Dose Response confirmation of uHTS hits for small molecule antagonists of the CRF-binding protein and CRF-R2 receptor complex.; type: functional; conditions: read-out: IC50_Mean
Streptococcus = test: Group A Streptococcus viability loss, dose response, counter-screen for streptokinase expression inhibitor project, luminescence, BacTiterGlo (AID 1915); type: functional, organism-based;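 further: potency for reduction of bacterial viability or growth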
[3] = system: Streptococcus sp. 'group A'; test: growth inhibition of control SK(-) GAS strain, dose response, counter-screen for streptokinase expression inhibitor project, luminescence, kanamycin, BacTiterGlo, confirmation (AID 1900); type: functional, organism-based
Streptokinase A = molecular target: T2, Streptokinase A (Streptococcus pyogenes serotype M1, UniProt P10520); test: S. pyogenes streptokinase expression inhibitors, potency, dose response, plasminogen activation absorbance, OD405 (AID 1914); type: functional, Streptococcus pyogenes M1 GAS;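 further: secreted streptokinase activity via plasminogen activation per viability signal from cell pellet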
T2 sequence (P10520 whole entry): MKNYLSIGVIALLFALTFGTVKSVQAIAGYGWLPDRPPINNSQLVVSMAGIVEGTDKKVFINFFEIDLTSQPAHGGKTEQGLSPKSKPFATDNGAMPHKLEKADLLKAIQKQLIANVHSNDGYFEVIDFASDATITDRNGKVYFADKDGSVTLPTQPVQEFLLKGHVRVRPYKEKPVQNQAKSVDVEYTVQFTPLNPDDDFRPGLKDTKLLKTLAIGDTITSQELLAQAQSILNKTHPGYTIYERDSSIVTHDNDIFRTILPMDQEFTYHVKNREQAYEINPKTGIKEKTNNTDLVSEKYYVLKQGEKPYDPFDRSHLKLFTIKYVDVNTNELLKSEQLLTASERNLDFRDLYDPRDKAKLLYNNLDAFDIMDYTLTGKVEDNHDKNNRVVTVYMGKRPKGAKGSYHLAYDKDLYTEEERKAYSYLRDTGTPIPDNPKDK

[4] = molecular target: Luciferin 4-monooxygenase (Photinus pyralis, UniProt P08659); test: firefly luciferase enzyme inhibitors, dose response, biochemical, luminescence (AID 1891)
[5] = Luminescence Cell-Based Dose Confirmation HTS to Identify Inhibitors of Platelet Dense Granule Release. [Related pubchem assays: 1663 (Primary HTS), 1678 (Summary of Project)]; type: functional
Cytochrome P450 2C19 = Cytochrome P450 2C19 (Homo sapiens, UniProt P33261); test: Cytochrome panel assay with activity outcomes. Panel member name: p450-cyp2c19 Compounds with AC50 equal or less than 10 uM are considered active; type: functional
Cytochrome P450 2D6 = Cytochrome P450 2D6 (Homo sapiens, UniProt P10635);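 further: CYP2D6 member of a cytochrome P450 panel assay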
Cytochrome P450 1A2 = molecular target: T3, Cytochrome P450 1A2 (Homo sapiens, UniProt P05177);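 further: PubChem cytochrome P450 panel assay, CYP1A2 panel member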
T3 sequence (P05177 whole entry): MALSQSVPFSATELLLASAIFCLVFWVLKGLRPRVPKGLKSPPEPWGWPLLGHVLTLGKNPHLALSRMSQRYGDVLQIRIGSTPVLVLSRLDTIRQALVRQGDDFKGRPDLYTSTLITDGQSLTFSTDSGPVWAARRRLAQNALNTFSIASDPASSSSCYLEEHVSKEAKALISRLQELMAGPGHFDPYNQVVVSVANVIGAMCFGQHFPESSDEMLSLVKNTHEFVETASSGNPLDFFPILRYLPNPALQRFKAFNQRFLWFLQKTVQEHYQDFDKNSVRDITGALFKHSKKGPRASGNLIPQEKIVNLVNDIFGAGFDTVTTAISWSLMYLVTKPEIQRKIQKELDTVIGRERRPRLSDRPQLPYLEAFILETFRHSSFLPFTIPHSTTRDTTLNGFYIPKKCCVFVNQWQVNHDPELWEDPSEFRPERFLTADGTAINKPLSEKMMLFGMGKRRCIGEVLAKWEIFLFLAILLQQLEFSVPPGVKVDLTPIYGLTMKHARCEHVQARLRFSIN

Cytochrome P450 2C9 = Cytochrome P450 2C9 (Homo sapiens, UniProt P11712)
[6] = cytotoxicity toward NIH3T3 fibroblasts, dose response, counter-screen, cell-based, ATP luminescence, mouse fibroblasts (AID 2010); type: functional;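 further: cells exposed to compound for about 90 hours before reading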
[7] = inhibitors of intracellular T. cruzi replication, confirmation, NIH3T3 host cells, beta-gal luminescence (AID 2044); type: functional, cell-based;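 further: intracellular parasites grown in NIH/3T3 mouse fibroblasts as host cells; luminescent beta-galactosidase reporter signal from transgenic T. cruzi replicating inside host cells; inhibitors lower the luminescence signal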

Sequence of Cytochrome P450 2C19 (P33261 whole entry): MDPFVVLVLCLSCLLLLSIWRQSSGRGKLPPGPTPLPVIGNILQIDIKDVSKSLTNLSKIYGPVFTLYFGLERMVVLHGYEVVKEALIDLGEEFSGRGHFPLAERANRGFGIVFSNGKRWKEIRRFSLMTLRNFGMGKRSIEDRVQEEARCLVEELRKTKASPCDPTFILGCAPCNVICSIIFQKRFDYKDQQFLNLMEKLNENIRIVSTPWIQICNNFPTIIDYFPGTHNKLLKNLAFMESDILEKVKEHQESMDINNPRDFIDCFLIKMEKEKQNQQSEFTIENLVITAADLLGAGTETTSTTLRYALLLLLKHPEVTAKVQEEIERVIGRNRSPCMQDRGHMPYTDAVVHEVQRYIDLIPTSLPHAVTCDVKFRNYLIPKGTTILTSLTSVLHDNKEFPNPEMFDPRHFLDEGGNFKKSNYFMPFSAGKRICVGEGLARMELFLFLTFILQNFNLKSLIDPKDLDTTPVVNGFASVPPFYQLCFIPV
Sequence of Luciferin 4-monooxygenase (P08659 whole entry): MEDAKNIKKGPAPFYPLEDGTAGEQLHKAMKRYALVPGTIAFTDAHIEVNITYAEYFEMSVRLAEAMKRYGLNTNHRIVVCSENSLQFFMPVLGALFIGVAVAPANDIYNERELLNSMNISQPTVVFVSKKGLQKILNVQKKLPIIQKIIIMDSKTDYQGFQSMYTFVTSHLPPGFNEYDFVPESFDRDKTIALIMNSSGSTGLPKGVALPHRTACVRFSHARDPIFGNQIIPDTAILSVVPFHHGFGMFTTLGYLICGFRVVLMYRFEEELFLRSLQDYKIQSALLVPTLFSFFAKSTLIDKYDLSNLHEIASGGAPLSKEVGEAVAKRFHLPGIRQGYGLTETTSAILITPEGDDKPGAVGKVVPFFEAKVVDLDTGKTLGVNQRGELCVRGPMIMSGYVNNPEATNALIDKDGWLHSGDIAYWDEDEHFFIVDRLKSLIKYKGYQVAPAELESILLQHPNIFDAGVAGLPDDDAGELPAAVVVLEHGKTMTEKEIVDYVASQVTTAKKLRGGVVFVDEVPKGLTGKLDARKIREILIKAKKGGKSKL
Sequence of Cytochrome P450 2C9 (P11712 whole entry): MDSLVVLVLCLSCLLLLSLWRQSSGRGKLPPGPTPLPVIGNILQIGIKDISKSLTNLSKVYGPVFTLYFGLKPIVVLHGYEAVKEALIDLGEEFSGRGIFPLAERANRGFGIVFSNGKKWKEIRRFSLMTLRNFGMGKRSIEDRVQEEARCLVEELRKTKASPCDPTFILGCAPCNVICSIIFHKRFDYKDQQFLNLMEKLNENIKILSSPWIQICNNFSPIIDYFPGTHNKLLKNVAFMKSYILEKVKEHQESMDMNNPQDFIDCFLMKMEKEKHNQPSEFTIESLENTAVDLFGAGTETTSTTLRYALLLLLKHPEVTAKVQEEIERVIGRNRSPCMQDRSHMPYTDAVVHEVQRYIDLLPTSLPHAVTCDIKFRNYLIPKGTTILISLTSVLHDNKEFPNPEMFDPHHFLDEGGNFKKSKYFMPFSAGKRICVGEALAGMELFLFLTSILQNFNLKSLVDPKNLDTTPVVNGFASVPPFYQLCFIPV
Sequence of Cytochrome P450 2D6 (P10635 whole entry): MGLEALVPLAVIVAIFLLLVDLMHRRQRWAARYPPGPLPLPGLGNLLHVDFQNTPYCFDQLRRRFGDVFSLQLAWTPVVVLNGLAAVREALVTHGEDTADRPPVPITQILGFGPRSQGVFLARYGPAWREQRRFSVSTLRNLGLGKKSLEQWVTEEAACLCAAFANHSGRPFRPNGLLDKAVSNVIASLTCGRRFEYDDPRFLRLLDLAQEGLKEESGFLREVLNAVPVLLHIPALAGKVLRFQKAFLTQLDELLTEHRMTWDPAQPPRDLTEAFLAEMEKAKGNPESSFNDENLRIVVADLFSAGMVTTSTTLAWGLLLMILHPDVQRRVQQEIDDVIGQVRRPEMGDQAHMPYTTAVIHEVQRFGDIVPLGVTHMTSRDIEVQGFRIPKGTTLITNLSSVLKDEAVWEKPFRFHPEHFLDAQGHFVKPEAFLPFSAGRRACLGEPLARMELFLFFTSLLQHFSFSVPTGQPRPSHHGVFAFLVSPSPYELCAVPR

NC(=O)c1ccc(C2SCC(=O)N2Cc2ccccc2)cc1 (configuration not stated)
EC50 [1]: > 53 µM (inactive)
IC50 [2]: > 47.1 µM (inactive)

CCCN(CC(=O)Nc1ccccc1OC)C(=O)c1ccncc1
EC50 (Streptococcus): > 150 µM (not active)
EC50 [3]: > 150 µM (not active)
EC50 (Streptokinase A): > 150 µM (not active)

CCCCCCCCCOC(=O)C[n+]1csc(CCO)c1C
EC50 [1]: > 53 µM (inactive)
IC50 [2]: > 47.1 µM (inactive)

Cn1c(=O)oc2cc(S(=O)(=O)N3CCN(c4ccc(F)cc4)CC3)ccc21
EC50 [4]: > 112 µM (not active)
EC50 [5]: > 112 µM (not active)

Cc1ccc(SC(C)C(=O)Nc2ccccc2C(=O)N2CCOCC2)cc1 (configuration not stated)
EC50 [4]: > 112 µM (not active)
EC50 [5]: > 112 µM (not active)

Cc1ccc(Nc2ncccc2C(=O)NCc2cccs2)c(C)c1
AC50 (Cytochrome P450 2C19; read-out: AC50): 7.08 µM (inconclusive)
AC50 (Cytochrome P450 2D6): 25.1 µM (inconclusive)

NC(=O)NC(=O)COC(=O)c1ccc2c(c1)C(=O)N(Cc1ccccc1)C2=O
EC50 [4]: > 112 µM (not active)
EC50 [5]: > 112 µM (not active)

O=C(O)c1ccc(N2CCCCS2(=O)=O)cc1
EC50 (Streptococcus): > 150 µM (not active)
EC50 [3]: > 150 µM (not active)
EC50 (Streptokinase A): > 150 µM (not active)

CCOC(=O)CCCNC(=O)c1cncc(Br)c1
AC50 (Cytochrome P450 2C19; read-out: AC50): 39.8 µM (inconclusive)

N#CCCn1c(=O)c(-c2ccc(F)cc2)nc2cnc(N3CCOCC3)nc21
AC50 (Cytochrome P450 1A2): 20 µM (inconclusive)

O=C(O)c1cc2cc(Cl)ccc2oc1=O
AC50 (Cytochrome P450 1A2): 0.0251 µM (inconclusive)
AC50 (Cytochrome P450 2C9): 0.00562 µM (inconclusive)

Cn1cc(S(=O)(=O)N2CCc3ccccc32)cc1C(=O)Nc1ccc(Cl)cc1
EC50 [4]: > 112 µM (not active)
EC50 [5]: > 112 µM (not active)

CCOCc1cc(CN2CCCC(CNC(=O)c3ccco3)C2)ccc1OC (configuration not stated)
EC50 [1]: > 53 µM (inactive)
IC50 [2]: > 47.1 µM (inactive)

O=C(CCOc1ccccc1)Nc1ccc([N+](=O)[O-])cc1
EC50 [1]: > 53 µM (inactive)
IC50 [2]: > 47.1 µM (inactive)

CCN1C(=O)C(=O)N(Cc2ccc(OC)c(F)c2)C1=O
EC50 [1]: > 53 µM (inactive)
IC50 [2]: > 47.1 µM (inactive)

c1csc(-c2csc3nc(CN4CCOCC4)nc(NCc4ccc5c(c4)OCO5)c23)c1
EC50 (Streptococcus): > 150 µM (not active)
EC50 [3]: 12.3 µM (active)
EC50 [6]: > 60 µM (not active)
EC50 [7]: 1.31 µM (active)
EC50 (Streptokinase A): 59.9 µM (active)

CC(=O)COc1ccc2c(C)c(C)c(=O)oc2c1
AC50 (Cytochrome P450 2C19; read-out: AC50): 0.178 µM (inconclusive)

CCOc1cc(CNCCN2CCOCC2)ccc1OCc1ccccc1Cl
EC50 [4]: > 112 µM (not active)
EC50 [5]: > 112 µM (not active)
EC50 [6]: 21.1 µM (active)
EC50 [7]: 0.125 µM (active)

CCNC(=O)C1OC(n2cnc3c(N)ncnc32)C(O)C1O (configuration not stated)
EC50 [5]: < 0.088 µM (active)

Cc1ccc(CNC(=O)CCNC(=O)Cn2ccc3ccccc3c2=O)cc1
EC50 [1]: > 53 µM (inactive)
IC50 [2]: > 47.1 µM (inactive)

CS(=O)(=O)N1CCC2(CC1)CN(Cc1nccs1)C2
AC50 (Cytochrome P450 1A2): 6.31 µM (inconclusive)

Clc1cccc(Cl)c1C1Nc2cccc3cccc(c23)N1
EC50 (Streptococcus): 19.1 µM (active)
EC50 [3]: 5.07 µM (active)
EC50 (Streptokinase A): > 50 µM (not active)

S=C(NCc1ccc(Cl)c(Cl)c1)Nc1ccc2c(c1)OCO2
EC50 [1]: > 53 µM (inactive)
IC50 [2]: > 47.1 µM (inactive)

COc1ccc(-c2ccc(CN3C(C)C(=O)N(Cc4cn(Cc5ccco5)nn4)CCS3(=O)=O)cc2)cc1 (configuration not stated)
EC50 [1]: > 53 µM (inactive)
IC50 [2]: > 47.1 µM (inactive)

O=[N+]([O-])c1cc([As](=O)(O)O)ccc1O [ROXARSONE]
AC50 (Cytochrome P450 2C19): inconclusive

CCC(=O)Nc1nc2ccccc2n1Cc1ccccc1C
EC50 (Streptococcus): > 150 µM (not active)
EC50 [3]: 2.29 µM (active)
EC50 (Streptokinase A): > 150 µM (not active)

Cc1cc(C)c2c(SCc3ccc(Cl)cc3Cl)nc(N)nc2n1
AC50 (Cytochrome P450 2C19; read-out: AC50): 1 µM (inconclusive)

CSCCC(NC(=O)c1cccc(C)c1)C(=O)NNC(=O)c1cccs1 (configuration not stated)
EC50 [1]: > 53 µM (inactive)
IC50 [2]: > 47.1 µM (inactive)

CC(C(=O)NCCN1CCOCC1)(c1ccccc1)c1ccccc1
EC50 [1]: > 53 µM (inactive)
IC50 [2]: > 47.1 µM (inactive)

COc1ccc(-c2nc3cnc(N(C)C)nc3n(CCc3ccccc3)c2=O)cc1
AC50 (Cytochrome P450 1A2): 1.26 µM (inconclusive)

COc1ccc2c(c1)/C(=C/c1cc(OC)c(OC)c(OC)c1)C(=O)N2
EC50 [1]: > 53 µM (inactive)
IC50 [2]: > 47.1 µM (inactive)

C=CCc1cc(/C=C2\C(=N)N3N=C(CC(=O)N4CCOCC4)SC3=NC2=O)cc(OC)c1O
EC50 [1]: 6.76 µM (active)

COc1ccc(N2C(=O)c3cccc4cccc(c34)C2=O)cc1
EC50 [1]: > 53 µM (inactive)

CC1=CC(C)(C)n2c(O)c(N=N)c3c(C)c(C)cc1c32
EC50 (Streptococcus): > 150 µM (not active)
EC50 [3]: 8.93 µM (active)
EC50 (Streptokinase A): 16.3 µM (active)

O=C(Nc1cc(Br)ccc1O)c1cc(-c2ccc3c(c2)OCO3)on1
EC50 [1]: > 53 µM (inactive)
IC50 [2]: > 47.1 µM (inactive)

N[C@@]1(C(=O)O)CN[C@H](C(=O)O)C1
AC50 (Cytochrome P450 1A2): 31.6 µM (inconclusive)

O=C(NC(Cc1c[nH]c2ccccc12)C(=O)N/N=C/c1cccc2ccccc12)c1cccs1 (configuration not stated)
EC50 (Streptococcus): 39.5 µM (active)
EC50 [3]: 5.65 µM (active)
EC50 (Streptokinase A): > 150 µM (not active)

Cc1ccc(C(=O)NC2CCCC2)s1
EC50 (Streptococcus): > 150 µM (not active)
EC50 [3]: > 150 µM (not active)
EC50 (Streptokinase A): > 150 µM (not active)

N[C@@H](CCCCP(=O)(O)O)C(=O)O
AC50 (Cytochrome P450 1A2): 31.6 µM (inconclusive)

CC1CCN(c2nc(N3CCCCC3)nc(N3CCCCC3)n2)CC1
EC50 (Streptococcus): > 150 µM (not active)
EC50 [3]: 13.7 µM (active)
EC50 (Streptokinase A): 33.2 µM (active)

O=C1CSC(c2cn(-c3ccccc3)nc2-c2ccc3c(c2)OCCO3)N1CCN1CCOCC1 (configuration not stated)
EC50 [4]: > 112 µM (not active)
EC50 [5]: > 112 µM (not active)

O=C(CN1C(=O)CCC1=O)Nc1nc(-c2cccs2)cs1
EC50 [4]: > 112 µM (not active)
EC50 [5]: > 112 µM (not active)

Cc1c(C(=O)N2CCCC2)sc(NC(=O)c2ccc(Cl)cc2)c1C#N
EC50 [4]: > 112 µM (not active)
EC50 [5]: > 112 µM (not active)

CC(C)S(=O)(=O)c1csc(C(=O)Nc2ccc(F)cc2)c1N
EC50 [4]: 2.33 µM (active)
EC50 [5]: < 0.701 µM (active)

CC1C/C(=N\NC(=S)NCc2ccccc2)CC(C)(C)C1 (configuration not stated)
EC50 (Streptococcus): 10.4 µM (active)
EC50 [3]: 6.08 µM (active)
EC50 (Streptokinase A): > 150 µM (not active)
